Literature values as cited in patent US7786119B2, “Drug conjugates of ion channel modulating compounds” (Cardiome Pharma Corp., priority 2004, dated 2010).

Columns and labels:
[1] = optically pure d-sotalol; SWORD study

Row | SMILES | increased mortality compared to placebo [1] | risk of ventricular proarrhythmia (estimated) | patients requiring cardioversion for refractory ventricular arrhythmias (in vivo)
1 | CC(C)NC[C@@H](O)c1ccc(NS(C)(=O)=O)cc1 [d-sotalol] | 65% | – | –
2 | CCCCCCCN(CC)CCCC(O)c1ccc(NS(C)(=O)=O)cc1 (stereo not drawn) [ibutilide] | – | ~4.4% | ~1.7%
